For one assay, the target named is T1, Human PARP-1 enzyme (Homo sapiens, UniProt P09874).
T1 construct: purchased Trevigen
The assay can be described thus: In vitro Scintillation Proximity Assay (SPA) for PARP-1 inhibitory activity. It is filed as biochemical. The following applies: read-out: in vitro SPA assay PARP-1 pIC50 (converted). The method, boiled down: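 SPA assay: nicked-DNA-activated PARP-1 (0.1–0.2 μg/ml) ADP-ribosylates biotinylated histones (2 μg/ml) using [3H]-NAD+, 20 min at RT in Tris pH 8/DTT/MgCl2, stopped with 2 mM NAD+. Blank-subtracted cpm expressed as % control; IC50 by linear interpolation, reported as pIC50 (10−5 to 3×10−9 M tested).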

For a further assay, the system named is HCT116 cells. The assay can be described thus: Mitotic arrest assay on HCT116 cells (phospho-histone H3 Ser10). It is filed as cell-based, human. The following applies: lowest active dose; for minimal effective concentration: Homo sapiens, HCT-116, HCT116 cells, read-out: Mitotic arrest HCT116 LAD (converted). A digest of the protocol:
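Seeded overnight, then compound-treated 6 h at 37 °C (≤0.1% DMSO); fixed, stained with Alexa Fluor 488 anti-phospho-H3 (Ser10) plus Hoechst 33342, imaged on InCell Analyzer 1000. Blank-subtracted signal divided by SD (sigma), triplicate; value is lowest dose giving sigma >5 (LAD).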

T1 sequence (P09874 whole entry): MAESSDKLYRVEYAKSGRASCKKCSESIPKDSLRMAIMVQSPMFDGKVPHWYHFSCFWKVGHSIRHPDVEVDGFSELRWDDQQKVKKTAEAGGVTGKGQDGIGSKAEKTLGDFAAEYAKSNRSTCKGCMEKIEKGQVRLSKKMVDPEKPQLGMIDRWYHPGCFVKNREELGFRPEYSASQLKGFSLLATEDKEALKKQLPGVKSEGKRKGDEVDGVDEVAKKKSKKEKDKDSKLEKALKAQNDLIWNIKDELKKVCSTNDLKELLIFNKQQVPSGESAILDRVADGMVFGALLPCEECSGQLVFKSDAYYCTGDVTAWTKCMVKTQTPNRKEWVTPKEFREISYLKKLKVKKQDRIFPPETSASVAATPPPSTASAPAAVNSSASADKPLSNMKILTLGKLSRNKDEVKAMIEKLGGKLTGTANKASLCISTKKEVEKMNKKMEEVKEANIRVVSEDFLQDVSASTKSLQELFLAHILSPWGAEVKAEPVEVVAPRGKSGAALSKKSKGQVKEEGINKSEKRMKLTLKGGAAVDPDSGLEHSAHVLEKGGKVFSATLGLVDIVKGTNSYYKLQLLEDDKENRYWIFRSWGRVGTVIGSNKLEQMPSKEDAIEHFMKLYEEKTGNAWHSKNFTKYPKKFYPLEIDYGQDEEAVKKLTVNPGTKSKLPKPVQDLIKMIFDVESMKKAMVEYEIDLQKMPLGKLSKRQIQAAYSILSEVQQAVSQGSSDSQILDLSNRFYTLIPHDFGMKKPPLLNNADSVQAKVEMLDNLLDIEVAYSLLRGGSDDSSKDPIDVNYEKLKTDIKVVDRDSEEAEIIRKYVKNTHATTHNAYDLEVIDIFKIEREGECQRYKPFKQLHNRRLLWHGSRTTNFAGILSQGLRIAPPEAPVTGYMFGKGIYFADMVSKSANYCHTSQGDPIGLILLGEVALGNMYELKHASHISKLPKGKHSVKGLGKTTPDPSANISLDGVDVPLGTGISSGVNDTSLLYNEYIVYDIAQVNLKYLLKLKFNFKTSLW

`CCc1cc2ccc(C(C)(C#N)Cc3ccc(OC)c(C#N)c3)cc2[nH]c1=O` (stereo not drawn) [Compound 77]: the IC50 on Human PARP-1 enzyme was 398 nM. Also, the minimal effective concentration with HCT116 cells was 0.316 µM.

In the case of `CCc1cc2ccc(C(C)(C#N)Cc3cc(C)ccc3C)cc2[nH]c1=O` (stereo not drawn) [Compound 78], the IC50 on Human PARP-1 enzyme is 1260 nM. Besides, in the assay with HCT116 cells, the minimal effective concentration is 0.1 µM.

For `CCc1cc2ccc(C(C)(C#N)Cc3ccc(F)c(C)c3)cc2[nH]c1=O` (stereo not drawn) [Compound 79], the IC50 at Human PARP-1 enzyme was 794 nM. For the same compound, the minimal effective concentration in the assay on HCT116 cells is 0.316 µM.

On to `CCc1cc2ccc(C(C)(C#N)Cc3cc(Cl)ccc3OC)cc2[nH]c1=O` (stereo not drawn) [Compound 80], for which the IC50 on Human PARP-1 enzyme was 1000 nM. Besides, the minimal effective concentration with HCT116 cells was 0.1 µM.

As for `CCc1cc2ccc(C(C)(C#N)Cc3cccc(Br)c3C)cc2[nH]c1=O` (stereo not drawn) [Compound 81], the IC50 on Human PARP-1 enzyme was 1260 nM. The minimal effective concentration with HCT116 cells was 0.1 µM.

For the compound `CCc1cc2ccc(C(C)(C#N)Cc3ccc(Cl)c(C(F)(F)F)c3)cc2[nH]c1=O` (stereo not drawn) [Compound 82], the IC50 at Human PARP-1 enzyme was 3980 nM. The minimal effective concentration in the assay with HCT116 cells is 0.1 µM.

On to `CCc1cc2ccc(C(C)(C#N)Cc3ccc(C)c(F)c3F)cc2[nH]c1=O` (stereo not drawn) [Compound 83], for which the IC50 on Human PARP-1 enzyme was 631 nM. The minimal effective concentration with HCT116 cells is 0.316 µM.

For `CCc1cc2ccc(C(C)(C#N)Cc3c(C)cccc3C)cc2[nH]c1=O` (stereo not drawn) [Compound 84], the IC50 at Human PARP-1 enzyme is 1260 nM. Also, the minimal effective concentration with HCT116 cells was 0.316 µM.

`CCc1cc2ccc(C(C)(C#N)Cc3nc4ccccc4o3)cc2[nH]c1=O` (stereo not drawn) [Compound 85]: the IC50 on Human PARP-1 enzyme is 126 nM. In addition, the minimal effective concentration in the assay on HCT116 cells is 0.316 µM.

For the compound `CCc1cc2ccc(C(C)(C#N)Cc3csc(C)n3)cc2[nH]c1=O` (stereo not drawn) [Compound 86], at Human PARP-1 enzyme, the IC50 is 501 nM. Further, the minimal effective concentration in the assay on HCT116 cells was 1 µM.

For the compound `CCc1cc2ccc(C(C)(C#N)Cc3ccc4nccnc4c3)cc2[nH]c1=O` (stereo not drawn) [Compound 87], the IC50 on Human PARP-1 enzyme is 79.4 nM. Further, in the assay with HCT116 cells, the minimal effective concentration was 0.316 µM.

Take `CCc1cc2ccc(C(C)(C#N)Cc3c(C)c(C)cc(C)c3C)cc2[nH]c1=O` (stereo not drawn) [Compound 88]: the IC50 on Human PARP-1 enzyme is 1580 nM. Moreover, the minimal effective concentration in the assay on HCT116 cells is 1 µM.

As for `CCc1cc2ccc(C(C)(C#N)Cc3c(C)c(C)c(C)c(C)c3C)cc2[nH]c1=O` (stereo not drawn) [Compound 89], the IC50 at Human PARP-1 enzyme was 1580 nM. In addition, in the assay on HCT116 cells, the minimal effective concentration was 3.16 µM.

Consider `CCc1cc2ccc(C(C)(C#N)Cc3cc(Cl)cc4c3OCOC4)cc2[nH]c1=O` (stereo not drawn) [Compound 90], for which the IC50 at Human PARP-1 enzyme is 316 nM. In the assay on HCT116 cells, the minimal effective concentration is 0.316 µM.

Take `CCc1cc2ccc(C(C)(C#N)Cc3cc4c(cc3Cl)OCO4)cc2[nH]c1=O` (stereo not drawn) [Compound 91]: the IC50 on Human PARP-1 enzyme is 1260 nM. For the same compound, the minimal effective concentration in the assay on HCT116 cells was 0.1 µM.

`CCc1cc2ccc(C(C)(C#N)Cc3cc(Cl)cc4c3OCOC4)cc2[nH]c1=O` (stereo not drawn) [Compound 92]: the IC50 on Human PARP-1 enzyme is 251 nM. This compound showed a Mitotic arrest HCT116 LAD in the assay on HCT116 cells (HCT116 cells, the values are: pLAD (−log M lowest active dose)) of 6.5.

For `CCc1cc2ccc(C(C)(C#N)Cc3nncn3C)cc2[nH]c1=O` (stereo not drawn) [Compound 93], the IC50 on Human PARP-1 enzyme is 126 nM. The minimal effective concentration with HCT116 cells was 1 µM.

For `CCc1cc2ccc(C(C)(C#N)Cc3cccc4nnn(C)c34)cc2[nH]c1=O` (stereo not drawn) [Compound 94], the IC50 on Human PARP-1 enzyme is 126 nM. In addition, in the assay with HCT116 cells, the minimal effective concentration is 3.16 µM.

In the case of `CCc1cc2ccc(C(C)(C#N)Cc3nn(C)c4ccccc34)cc2[nH]c1=O` (stereo not drawn) [Compound 95], the IC50 on Human PARP-1 enzyme was 251 nM. For the same compound, the minimal effective concentration with HCT116 cells is 0.1 µM.

For `CCc1cc2ccc(C(C)(C#N)Cc3cn4ccccc4n3)cc2[nH]c1=O` (stereo not drawn) [Compound 96], the IC50 at Human PARP-1 enzyme is 126 nM. Also, the minimal effective concentration with HCT116 cells is 1 µM.

As to `CCc1cc2ccc(C(C)(C#N)Cc3cccnc3)cc2[nH]c1=O` (stereo not drawn) [Compound 97], the IC50 on Human PARP-1 enzyme was 39.8 nM. Besides, the minimal effective concentration in the assay with HCT116 cells is 3.16 µM.

Take `CCc1cc2ccc(C(C)(C#N)Cc3ccncc3)cc2[nH]c1=O` (stereo not drawn) [Compound 98]: on Human PARP-1 enzyme, the IC50 is 158 nM. Moreover, the minimal effective concentration in the assay with HCT116 cells is greater than 10 µM.

Turning to `CCc1cc2ccc(C(C)(C#N)Cc3cc(Cl)ccc3Cl)cc2[nH]c1=O` (stereo not drawn) [Compound 99], the IC50 on Human PARP-1 enzyme was 1000 nM. The minimal effective concentration in the assay on HCT116 cells is 0.1 µM.

`CCc1cc2ccc(C(C)(C#N)Cc3ccccc3C#N)cc2[nH]c1=O` (stereo not drawn) [Compound 101]: the IC50 on Human PARP-1 enzyme was 50.1 nM. Also, the minimal effective concentration in the assay with HCT116 cells is 0.316 µM.

For the compound `CCc1cc2ccc(C(C)(C#N)Cc3ccccc3OC(F)(F)F)cc2[nH]c1=O` (stereo not drawn) [Compound 102], on Human PARP-1 enzyme, the IC50 is 1580 nM. Besides, the minimal effective concentration in the assay on HCT116 cells was 0.316 µM.

`CCc1cc2ccc(C(C)(C#N)Cc3ccccc3C(F)(F)F)cc2[nH]c1=O` (stereo not drawn) [Compound 103]: on Human PARP-1 enzyme, the IC50 was 1260 nM. Moreover, the minimal effective concentration with HCT116 cells was 0.316 µM.

For the compound `Cc1cc2ccc(C(C)(C#N)Cc3cc4ccccc4[nH]3)cc2[nH]c1=O` (stereo not drawn) [Compound 234], the IC50 on Human PARP-1 enzyme is 251 nM. For the same compound, the minimal effective concentration with HCT116 cells is 3 µM.

With `CCc1cc2ccc(C(C)(C#N)Cc3ccc(F)c(C#N)c3)cc2[nH]c1=O` (stereo not drawn) [Compound 267], the IC50 on Human PARP-1 enzyme is 79.4 nM. Moreover, the minimal effective concentration in the assay on HCT116 cells was 0.1 µM.

For `CCc1cc2ccc(C(C)(C#N)CCOc3ccccc3C#N)cc2[nH]c1=O` (stereo not drawn) [Compound 276], the IC50 at Human PARP-1 enzyme was 79.4 nM. In addition, the minimal effective concentration in the assay on HCT116 cells was 1 µM.

Consider `CCc1cc2ccc(C(C)(C#N)CCOc3cc(Cl)c(Cl)cc3Cl)cc2[nH]c1=O` (stereo not drawn) [Compound 277], for which the IC50 on Human PARP-1 enzyme was 398 nM. Moreover, the minimal effective concentration in the assay with HCT116 cells is 0.3 µM.

Regarding `CCc1cc2ccc(C(C)(C#N)CCOc3ccccc3F)cc2[nH]c1=O` (stereo not drawn) [Compound 278], the IC50 at Human PARP-1 enzyme was 100 nM. In addition, in the assay with HCT116 cells, the minimal effective concentration is 1 µM.

Take `CCc1cc2ccc(C(C)(C#N)CCOc3ccc4c(c3)OCO4)cc2[nH]c1=O` (stereo not drawn) [Compound 279]: on Human PARP-1 enzyme, the IC50 was 79.4 nM. Moreover, in the assay on HCT116 cells, the minimal effective concentration is 1 µM.

For `CCc1cc2ccc(C(C)(C#N)Cc3cc(OC)cc(OC)c3)cc2[nH]c1=O` (stereo not drawn) [Compound 332], the IC50 at Human PARP-1 enzyme is 79.4 nM. Besides, in the assay with HCT116 cells, the minimal effective concentration was 0.1 µM.
